In patent publication US20060257480A1, “Pharmaceutical formulations of amyloid inhibiting compounds” (priority 2005, published 2006):

Assays:
[1] = Gastrointestinal tolerability of sodium salt capsules (certain studies); format: in vivo; conditions: solid dosage form (capsules)
Method: (§1) Furthermore, the non-hygroscopic nature of the acid form makes it desirable as active pharmaceutical ingredient. To further protect against any possible gastrointestinal intolerance that could result from the acid form, the tablets are enteric-coated and a modified-release agent is added to control any rapid release of the drug in the stomach and the intestine, respectively.

[2] = Example 7 Part II: food effect on single 200 mg oral dose pharmacokinetics (Table 3 formulation); format: in vivo, human; conditions: 200 mg single oral, young male
Method: (§2) In the following examples and elsewhere herein, terms are as defined below. The pharmacokinetic parameters were derived by non-compartmental analysis using WinNonlin° (Pharsight Corporation, Mountain View, Calif.) or SAS® for Windows® (SAS Institute Inc., Cary, N.C.).
Following single oral dosing of 200 mg 3-APS (modified-release coated formulation as described in Table 3 above) to young male subjects (aged between 18 and 45 years) under fasted and fed (high fat) conditions, maximum plasma concentrations of 3-APS are attained at 5 and 13.5 h post-dose under fasted and fed conditions, respectively (Table 9A).

[3] = Example 9 Part I: single oral dose pharmacokinetics of NC-758-1 (Table 5 tablet) in healthy elderly; format: in vivo; conditions: both sexes, human, plasma, elderly male and female, fasted; for AUC(0-inf) / AUC(0-t) / Cmax: mean; for Tmax: median
Description: as §2
Part I—The pharmacokinetic profile and the effect of food on single oral doses of 3-APS free acid (modified-release enteric-coated tablet as described in Table 5 above, hereinafter “NC-758-1“) in healthy male and female elderly (≧55 years) volunteers. For doses at multiples of 50 mg, multiple 50 mg tables are administered. The test is an open label, three-period crossover study to assess the pharmacokinetic profile of 3 single oral doses of NC-758-1 in healthy elderly (≧55 years) male and female subjects. The blood samples are collected during 24 h following dosing. Plasma concentrations of 3-APS are determined using a validated LC-MS/MS method.

[4] = Example 10: 3-APS concentration in cerebrospinal fluid (CSF) of AD patients; format: in vivo, human; conditions: additional tests, treated patients
Description: (Patients having a CSF level below the lower limit of quantitation of the assay are considered as zero.) CSF concentrations of 3-APS on Day 2 of Week 12 after twice daily oral administration for 12 weeks are as follows: […]

[5] = Example 8 Part I: multiple rising oral dose pharmacokinetics of NC-758; format: in vivo; conditions: human, plasma, fasted; for AUC(0-inf) / AUC(0-t) / Cmax: mean; for AUC(0-t): read-out: AUC0-12h; for Tmax: median
Method: as §2
For doses at multiples of 100 mg, multiple 100 mg tables are administered. […] In Part I, 3-APS is administered as a single dose on Days 1 and 12 and on Days 2-11, twice daily at 12 hour intervals.

[6] = Example 9 Part II: food effect on single 100 mg oral dose pharmacokinetics in elderly (Table 5 formulation); format: in vivo; conditions: both sexes, human, plasma; 100 mg single oral, elderly male and female, Fasting Arm; median
Method: as §2
Following single oral dosing of 100 mg 3-APS (modified-release coated formulation modified-release enteric-coated tablet as described in Table 5 above) to elderly (55 years or older) male and female subjects under fasted and fed (high fat) conditions, maximum plasma concentrations of 3-APS are attained at 5 and 10.5 h post-dose under fasted and fed conditions, respectively (Table 12A below and FIG. 5 showing the Mean Plasma Concentration-Time Profiles of 3-APS under Fasted and Fed Conditions following Single Oral Administration of 100 mg to Elderly Male and Female Subjects).

[7] = molecular target: T1, Aβ42 (Homo sapiens, UniProt P05067); experiment: Example 11 additional tests: CSF Aβ42 levels and Aβ42/Aβ40 ratio in treated patients; format: in vivo
T1 construct: from tissue; host or cells: cerebrospinal fluid of AD patients treated with 3-APS

[8] = Example 7 Part I: single rising oral dose pharmacokinetics of NC-758 (Table 3 tablet), plasma 3-APS by LC-MS/MS; format: in vivo, human; conditions: for AUC(0-inf) / Tmax / Cmax / AUC(0-t): human, plasma, fasted; for AUC(0-inf) / Cmax / AUC(0-t): mean; for Tmax: median; for Cmax / AUC(0-t): male, po; for AUC(0-t): read-out: AUC0-Tlast
Description: as §2
Part I—The pharmacokinetic profile and the effect of food on single rising oral doses of 3-APS free acid (modified-release enteric-coated tablet, as described in Table 3 above, hereinafter “NC-758”) in healthy male young (18-45 years) volunteers is determined. For doses at multiples of 100 mg, multiple 100 mg tables are administered. The pharmacokinetics of a single oral dose of NC-758 is also determined in a group of healthy male elderly (≧55 years old) volunteers. The test is a randomized, double-blind, placebo-controlled study to assess the pharmacokinetic profile of 4 single rising oral doses of NC-758 in healthy young (18-45 years) male subjects. Blood samples are collected during 24 h following dosing. Plasma concentrations of 3-APS are determined using a validated LC-MS/MS method.

[9] = Example 13: single 150 mg (3 × 50 mg) oral dose pharmacokinetics in healthy elderly male volunteers, fasting and fed; format: in vivo, human; conditions: 150 mg (3 × 50 mg) single oral, Fasting Conditions, mean
Method: as §2
A single dose study of 3-APS Modified-Release Coated Tablets (of Table 5 above) in healthy elderly male volunteers following a 150 mg oral dose administration under fed conditions is conducted. For the 150 mg dose, three 50 mg tables are administered.

[10] = dog, in vivo
Method: as §1

[11] = both sexes, 200 mg, 200 mg BID, Day 1, elderly (≧55 years) male and female
[12] = both sexes, 200 mg, 200 mg BID, Day 12, elderly (≧55 years) male and female
[13] = male, 100 mg, 100 mg BID, Day 1, young (18-45 years) male
[14] = male, 100 mg, 100 mg BID, Day 12, young (18-45 years) male
[15] = male, 200 mg, 200 mg BID, Day 1, young (18-45 years) male
[16] = male, 200 mg, 200 mg BID, Day 12, young (18-45 years) male
[17] = 100 mg single oral, young (18-45 years) male
[18] = 200 mg single oral, young (18-45 years) male
[19] = 300 mg single oral, young (18-45 years) male
[20] = 100 mg, 100 mg single oral, young (18-45 years) male
[21] = 200 mg, 200 mg single oral, elderly (>55 years) male
[22] = 200 mg, 200 mg single oral, young (18-45 years) male
[23] = 300 mg, 300 mg single oral, young (18-45 years) male
[24] = 400 mg, 400 mg single oral, young (18-45 years) male

T1 sequence (P05067 672-713 limits assumed): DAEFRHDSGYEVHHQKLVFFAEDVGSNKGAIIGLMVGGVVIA

NCCCS(=O)(=O)[O-].[Na+] [3-amino-1-propanesulfonic acid, sodium salt]
gastrointestinal symptoms (i.e. nausea and vomiting) [1]: associated with gastrointestinal symptoms

NCCCS(=O)(=O)O [3-APS, 3-amino-1-propanesulfonic acid]
Cmax ([2]; Fed Arm (high fat), mean): 631 ng/mL | AUC(0-t) ([2]; human, plasma, Fasting Arm, mean, read-out: AUC0-Tlast): 2200 ng·h/mL | Tmax ([2]; human, plasma, Fasting Arm, median): 5 h | AUC(0-inf) ([2]; human, plasma, Fed Arm (high fat), mean): 4500 ng·h/mL | AUC(0-inf) ([3]; 50 mg single oral): 1570 ng·h/mL | AUC(0-t) ([3]; 50 mg single oral): 1540 ng·h/mL | Cmax ([3]; 50 mg single oral): 469 ng/mL | Tmax ([3]; 50 mg single oral): 5 h | AUC(0-inf) ([3]; 100 mg single oral): 2870 ng·h/mL | AUC(0-t) ([3]; 100 mg single oral): 3130 ng·h/mL | Cmax ([3]; 100 mg single oral): 745 ng/mL | Tmax ([3]; 100 mg single oral): 5 h | AUC(0-inf) ([3]; 150 mg single oral): 4500 ng·h/mL | AUC(0-t) ([3]; 150 mg single oral): 5300 ng·h/mL | Tmax ([3]; 150 mg single oral): 5 h | crossing of the blood/brain barrier [4]: crossed the blood/brain barrier | AUC(0-inf) ([5]; both sexes, 200 mg BID, Day 1, elderly (≧55 years) male and female): 5500 ng·h/mL | AUC(0-t) ([5]; both sexes, 200 mg BID, Day 12, elderly (≧55 years) male and female): 6290 ng·h/mL | Cmax [5, 11]: 897 ng/mL | AUC(0-t) [5, 11]: 5020 ng·h/mL | Tmax [5, 11]: 6 h | Cmax [5, 12]: 880 ng/mL | Tmax [5, 12]: 5 h | AUC(0-inf) ([5]; 100 mg BID, Day 1, young (18-45 years) male): 1020 ng·h/mL | AUC(0-inf) ([5]; 200 mg BID, Day 1, young (18-45 years) male): 3210 ng·h/mL | Cmax [5, 13]: 282 ng/mL | AUC(0-t) [5, 13]: 1330 ng·h/mL | Tmax [5, 13]: 6 h | Cmax [5, 14]: 256 ng/mL | AUC(0-t) [5, 14]: 1430 ng·h/mL | Tmax [5, 14]: 2.5 h | Cmax [5, 15]: 517 ng/mL | AUC(0-t) [5, 15]: 2860 ng·h/mL | Tmax [5, 15]: 4 h | Cmax [5, 16]: 581 ng/mL | AUC(0-t) [5, 16]: 4150 ng·h/mL | Tmax [5, 16]: 4 h | Tmax [6]: 5 h | ratio of Aβ42/Aβ40 ([7]; CSF, treated patients (FIGS. 2, 3 and 4)): reduced | CSF Aβ42 levels ([7]; treated patients (FIG. 1)): reduced | AUC0-t greater in elderly subjects compared to young subjects ([8]; 200 mg dose, Tables 9 and 10): approximately 70% | Cmax greater in elderly subjects compared to young subjects ([8]; 200 mg dose, Tables 9 and 10): approximately 70% | AUC(0-inf) [8, 17]: 1420 ng·h/mL | Tmax [8, 17]: 5 h | AUC(0-inf) [8, 18]: 2490 ng·h/mL | Tmax [8, 18]: 5 h | AUC(0-inf) [8, 19]: 4460 ng·h/mL | Tmax [8, 19]: 5 h | Tmax ([8]; 400 mg single oral, young (18-45 years) male): 2 h | Cmax [8, 20]: 410 ng/mL | AUC(0-t) [8, 20]: 1390 ng·h/mL | Cmax [8, 21]: 1090 ng/mL | AUC(0-t) [8, 21]: 4880 ng·h/mL | Cmax [8, 22]: 661 ng/mL | AUC(0-t) [8, 22]: 2900 ng·h/mL | Cmax [8, 23]: 904 ng/mL | AUC(0-t) [8, 23]: 4000 ng·h/mL | Cmax [8, 24]: 5370 ng/mL | AUC(0-t) [8, 24]: 16000 ng·h/mL | AUC0-Tlast [9]: 3211 ng·h/mL | AUC∞ [9]: 3284 ng·h/mL | tolerability [10]: better tolerated than the sodium salt form
